Source: ChEMBL document CHEMBL1155461, “Emerging targets in osteoporosis disease modification” (J Med Chem, 2010)
pEC50, pIC50, pKi: −log10 of the molar value. ≈ marks a conversion by molar mass, not a printed value.

Assays:
[1] = Clearance in rat; type: ADME, organism-based; conditions: in vivo
[2] = molecular target: Integrin alpha-IIb/beta-3 (Homo sapiens) (UniProt P05106+P08514); assay: Inhibition of integrin alpha2Bbeta3; type: protein-complex assay
[3] = Aqueous solubility of the compound; type: physicochemical; conditions: aqueous medium
Integrin alpha-V/beta-3 = Integrin alpha-V/beta-3 (Homo sapiens, UniProt P05106+P06756)
[4] = molecular target: Vitronectin (Homo sapiens) (UniProt P04004); assay: Inhibition of vitronectin
[5] = Half life in rat; type: ADME, organism-based; conditions: in vivo
MC3T3-E1 [6] = assay: Increase in octeocalcin mRNA expression in mouse MC3T3-E1 cells at 30 uM relative to control; type: functional
MC3T3-E1 [7] = assay: Increase in ALP mRNA expression in mouse MC3T3-E1 cells at 30 uM relative to control; type: functional
Homo sapiens [8] = assay: Induction of bone formation in postmenopausal woman assessed as increase in osteocalcin level at […] after 28 days relative to placebo control; type: functional
Rattus norvegicus [9] = assay: Elevated PTH levels in ovariectomised rats as Cmax after 60 mg/kg oral dose; type: functional, organism-based; parameters: dose 60 mg/kg
Rattus norvegicus [10] = assay: Elevated PTH levels in ovariectomised rats as Cmax after 120 mg/kg oral dose; type: functional, organism-based; parameters: dose 120 mg/kg
Homo sapiens [11] = assay: Induction of bone formation in postmenopausal woman assessed as increase in PINP level at […] after 28 days relative to placebo control; type: functional
Rattus norvegicus [12] = assay: Elevated PTH levels in ovariectomised rats as Cmax after 30 mg/kg oral dose; type: functional, organism-based; parameters: dose 30 mg/kg
Homo sapiens [13] = assay: Induction of bone formation in postmenopausal woman assessed as increase in ALP level at […] after 28 days relative to placebo control; type: functional
Homo sapiens [14] = assay: Antiosteoporotic activity in patient with osteoporosis assessed as increase in lumbar spine bone mineral density at 50 mg/kg, po administered weekly for 24 months relative to placebo control; type: functional
[15] = Selectivity for cathepsin K over cathepsin H
[16] = Selectivity for cathepsin K over cathepsin L
[17] = Selectivity for cathepsin K over cathepsin B
[18] = Selectivity for cathepsin K over cathepsin V
[19] = Bioavailability in dog; type: ADME, organism-based, Canis lupus familiaris; conditions: in vivo
Homo sapiens [20] = assay: Antiosteoporotic activity in patient with osteoporosis assessed as increase in hip bone mineral density at 50 mg/kg, po administered weekly for 24 months relative to placebo control; type: functional, Bone of hip region
[21] = Selectivity for cathepsin K over cathepsin S
[22] = Bioavailability in rat; type: ADME, organism-based; conditions: in vivo
[23] = Selectivity for cathepsin K over cathepsin F
Homo sapiens [24] = species on record: Homo sapiens; assay: Plasma protein binding in human; conditions: read-out: PPB (converted)
[25] = Clearance in dog; type: ADME, organism-based, Canis lupus familiaris; conditions: in vivo
Homo sapiens [26] = assay: Antiosteoporotic activity in men with osteoporosis assessed as decrease in bone resorption-associated serum CTX-1 level at 250 mg/kg after 10 to 14 days; type: functional, organism-based; parameters: dose 250 mg/kg
[27] = molecular target: Parathyroid hormone/parathyroid hormone-related peptide receptor (Homo sapiens, UniProt Q03431)
[28] = molecular target: Prostaglandin E2 receptor EP4 subtype (Mus musculus, UniProt P32240); assay: Agonist activity at mouse EP4 receptor expressed in CHO cells assessed as cAMP production; type: functional, cell-based
[29] = molecular target: Prostaglandin E2 receptor EP3 subtype (Mus musculus, UniProt P30557); assay: Binding affinity to mouse EP3 receptor by competitive binding assay
Mus musculus = assay: Induction of bone formation in mouse assessed as increase in bone mineral content at 300 ug/kg administered into dorsal muscle pouch relative to control; type: functional, Muscle tissue
Rattus norvegicus [30] = assay: Induction of bone formation in ovariectomized rat assessed as trabecular bone mineral content at 3 ug/kg, sc BID for 11 weeks (RVb = 200 mg/cm3); type: functional, Trabecula
Osteoclast = assay: Inhibition of bone resorption in human osteoclast assessed as decrease in CTX-1 level at 100 uM; type: functional
Rhesus monkey = assay: Antiosteoporotic activity in rhesus monkey assessed as decrease in bone resorption-associated urinary NTX-1 level at 15 mg/kg QD for 14 days; type: functional, Macaca mulatta, Urine; parameters: scale not given: the % may be the effect or the level left
Homo sapiens [31] = assay: Antiosteoporotic activity in postmenopausal woman with osteoporosis assessed as increase in femoral neck bone mineral density at 200 mg/kg BID for 12 months; type: functional
[32] = Clearance in po dosed rat; type: ADME, organism-based; conditions: in vivo
[33] = Selectivity for integrin alphaVbeta3 over integrin alphaVbeta5
Rattus norvegicus [34] = assay: Antiosteoporotic activity in rat assessed as increase in distal femoral metaphysis bone mineral density at 10 mg/kg BID for 28 days relative to control; type: functional
[35] = Clearance in po dosed dog; type: ADME, organism-based, Canis lupus familiaris; conditions: in vivo
Homo sapiens [36] = assay: Antiosteoporotic activity in postmenopausal woman with osteoporosis assessed as increase in hip bone mineral density at 200 mg/kg BID for 12 months; type: functional, Bone of hip region
Rattus norvegicus [37] = assay: Antiosteoporotic activity in rat assessed as increase in distal femoral metaphysis bone mineral density at 30 mg/kg BID for 28 days relative to control; type: functional
Homo sapiens [38] = assay: Antiosteoporotic activity in postmenopausal woman with osteoporosis assessed as increase in lumbar spine bone mineral density at 200 mg/kg BID for 12 months; type: functional
[39] = Half life in po dosed rat; type: ADME, organism-based; conditions: in vivo
[40] = Oral bioavailability in rat; type: ADME, organism-based; conditions: in vivo
[41] = molecular target: T1, Extracellular calcium-sensing receptor (Homo sapiens, UniProt P41180)
T1 sequence (P41180 whole entry): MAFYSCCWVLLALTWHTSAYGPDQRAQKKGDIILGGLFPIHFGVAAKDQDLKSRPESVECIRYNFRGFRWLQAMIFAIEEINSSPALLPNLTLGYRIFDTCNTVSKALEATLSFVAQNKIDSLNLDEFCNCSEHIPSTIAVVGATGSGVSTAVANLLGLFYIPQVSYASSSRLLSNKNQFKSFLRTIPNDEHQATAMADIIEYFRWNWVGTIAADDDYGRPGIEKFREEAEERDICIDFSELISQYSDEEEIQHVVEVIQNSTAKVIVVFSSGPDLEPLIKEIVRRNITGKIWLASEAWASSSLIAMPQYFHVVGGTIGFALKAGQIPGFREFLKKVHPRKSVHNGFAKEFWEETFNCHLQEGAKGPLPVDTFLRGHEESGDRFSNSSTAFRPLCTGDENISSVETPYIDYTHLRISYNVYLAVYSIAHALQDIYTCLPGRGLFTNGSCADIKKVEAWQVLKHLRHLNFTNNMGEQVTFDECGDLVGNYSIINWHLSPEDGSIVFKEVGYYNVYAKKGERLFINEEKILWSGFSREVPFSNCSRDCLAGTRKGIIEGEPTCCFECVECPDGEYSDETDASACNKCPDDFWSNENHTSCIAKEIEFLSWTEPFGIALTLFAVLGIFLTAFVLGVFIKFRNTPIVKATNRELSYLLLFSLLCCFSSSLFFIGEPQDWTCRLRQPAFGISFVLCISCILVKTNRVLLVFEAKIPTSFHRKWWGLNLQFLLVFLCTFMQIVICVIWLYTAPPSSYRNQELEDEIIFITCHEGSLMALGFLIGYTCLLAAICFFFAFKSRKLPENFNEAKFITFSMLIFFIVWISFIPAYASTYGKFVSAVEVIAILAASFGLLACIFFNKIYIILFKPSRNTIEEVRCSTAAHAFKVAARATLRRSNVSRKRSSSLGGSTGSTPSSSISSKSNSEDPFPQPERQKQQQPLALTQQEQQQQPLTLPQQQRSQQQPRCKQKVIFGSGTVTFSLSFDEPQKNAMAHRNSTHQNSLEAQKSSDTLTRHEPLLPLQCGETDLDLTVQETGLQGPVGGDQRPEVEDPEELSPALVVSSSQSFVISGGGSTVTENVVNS

Cynomolgus monkey [42] = assay: Antiosteoporotic activity in cynomolgus monkey assessed as decrease in bone resorption-associated urinary CTX-1 level at 10 mg/kg, po administered as single dose; type: functional; conditions: Macaca fascicularis, Urine
Cynomolgus monkey [43] = assay: Antiosteoporotic activity in cynomolgus monkey assessed as decrease in bone resorption-associated serum CTX-1 level at 10 mg/kg, po administered 5X a day; type: functional; conditions: Macaca fascicularis
Cynomolgus monkey [44] = assay: Antiosteoporotic activity in cynomolgus monkey assessed as decrease in bone resorption-associated urinary CTX-1 level at 10 mg/kg, po administered 5X a day; type: functional; conditions: Macaca fascicularis, Urine
Cynomolgus monkey [45] = assay: Antiosteoporotic activity in cynomolgus monkey assessed as increase in lumbar vertebrae bone strength at 30 mg/kg administered daily for 1 year; type: functional, Macaca fascicularis, Lumbar vertebra
Cynomolgus monkey [46] = assay: Antiosteoporotic activity in cynomolgus monkey assessed as decrease in bone resorption-associated serum CTX-1 level at 10 mg/kg, po administered as single dose; type: functional; conditions: Macaca fascicularis
Cynomolgus monkey [47] = assay: Antiosteoporotic activity in cynomolgus monkey assessed as increase in lumbar vertebrae bone strength at 1000 mg/kg administered daily for 1 year; type: functional, Macaca fascicularis, Lumbar vertebra
Cathepsin K = Cathepsin K (Rattus norvegicus, UniProt O35186); assay: Inhibition of rat cathepsin K
[48] = Cmax in rat at 50 mg/kg, po; type: ADME, organism-based; parameters: dose 50 mg/kg, route oral; conditions: in vivo
[49] = AUC in rat at 50 mg/kg, po; type: ADME, organism-based; parameters: dose 50 mg/kg, route oral; conditions: plasma
[50] = molecular target: Extracellular calcium-sensing receptor (Bos taurus, UniProt P35384); assay: Inhibition of CaSR in bovine parathyroid cells assessed as increase in PTH level; type: cell-based
[51] = Induction of osteogenesis in mouse calvarial cells assessed as increase in total bone area at 10 nM; type: functional, Calvarial cell

Sequence of Integrin alpha-V/beta-3 (P05106 27-788 limits assumed): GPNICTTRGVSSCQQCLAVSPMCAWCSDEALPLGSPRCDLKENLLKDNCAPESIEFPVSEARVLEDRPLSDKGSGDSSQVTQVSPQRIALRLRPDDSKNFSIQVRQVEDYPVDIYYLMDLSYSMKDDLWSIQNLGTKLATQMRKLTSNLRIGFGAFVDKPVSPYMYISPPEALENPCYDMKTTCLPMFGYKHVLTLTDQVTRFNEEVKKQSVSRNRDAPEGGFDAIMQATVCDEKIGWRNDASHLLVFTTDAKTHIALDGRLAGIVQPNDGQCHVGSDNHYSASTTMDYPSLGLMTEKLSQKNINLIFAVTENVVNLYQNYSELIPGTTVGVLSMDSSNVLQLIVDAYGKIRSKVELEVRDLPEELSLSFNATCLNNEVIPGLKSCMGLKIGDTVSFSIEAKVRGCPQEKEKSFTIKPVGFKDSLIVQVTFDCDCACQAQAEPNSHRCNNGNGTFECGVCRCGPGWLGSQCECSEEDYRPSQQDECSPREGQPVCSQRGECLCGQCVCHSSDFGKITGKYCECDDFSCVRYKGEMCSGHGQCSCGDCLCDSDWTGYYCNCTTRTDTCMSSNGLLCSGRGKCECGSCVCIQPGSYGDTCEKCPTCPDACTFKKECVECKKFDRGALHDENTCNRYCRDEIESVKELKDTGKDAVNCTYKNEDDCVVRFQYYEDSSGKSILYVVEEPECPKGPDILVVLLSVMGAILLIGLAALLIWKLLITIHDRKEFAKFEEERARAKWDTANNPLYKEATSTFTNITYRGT
Sequence of Integrin alpha-V/beta-3 (P06756 31-889 limits assumed): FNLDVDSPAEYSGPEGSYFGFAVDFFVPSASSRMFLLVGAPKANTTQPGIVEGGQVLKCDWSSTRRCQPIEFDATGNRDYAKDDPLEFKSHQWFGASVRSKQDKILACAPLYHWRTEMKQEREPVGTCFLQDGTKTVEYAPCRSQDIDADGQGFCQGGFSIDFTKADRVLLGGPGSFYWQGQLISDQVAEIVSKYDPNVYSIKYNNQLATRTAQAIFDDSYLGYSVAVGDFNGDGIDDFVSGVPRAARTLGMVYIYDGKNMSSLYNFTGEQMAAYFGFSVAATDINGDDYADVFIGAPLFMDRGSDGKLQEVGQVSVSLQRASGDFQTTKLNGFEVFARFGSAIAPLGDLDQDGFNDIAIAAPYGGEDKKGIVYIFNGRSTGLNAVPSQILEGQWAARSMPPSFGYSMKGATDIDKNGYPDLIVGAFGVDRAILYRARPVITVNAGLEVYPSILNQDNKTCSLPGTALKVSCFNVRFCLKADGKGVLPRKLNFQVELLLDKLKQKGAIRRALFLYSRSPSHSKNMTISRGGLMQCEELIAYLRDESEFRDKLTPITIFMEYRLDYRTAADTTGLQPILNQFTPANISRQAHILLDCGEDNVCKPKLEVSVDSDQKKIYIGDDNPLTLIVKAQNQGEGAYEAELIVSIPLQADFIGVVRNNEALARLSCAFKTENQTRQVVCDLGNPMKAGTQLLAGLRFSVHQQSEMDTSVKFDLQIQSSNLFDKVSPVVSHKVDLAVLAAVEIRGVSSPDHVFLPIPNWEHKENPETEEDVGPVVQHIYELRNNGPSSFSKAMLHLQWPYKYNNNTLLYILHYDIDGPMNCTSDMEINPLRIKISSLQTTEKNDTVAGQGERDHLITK
Sequence of Integrin alpha-V/beta-3 (P06756 891-1048 limits assumed): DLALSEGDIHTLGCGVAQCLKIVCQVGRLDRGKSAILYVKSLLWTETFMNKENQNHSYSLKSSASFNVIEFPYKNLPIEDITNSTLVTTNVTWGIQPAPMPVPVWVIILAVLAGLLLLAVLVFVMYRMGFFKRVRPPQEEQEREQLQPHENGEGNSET
Sequence of Extracellular calcium-sensing receptor (Bos taurus, UniProt P35384) (P35384 whole entry): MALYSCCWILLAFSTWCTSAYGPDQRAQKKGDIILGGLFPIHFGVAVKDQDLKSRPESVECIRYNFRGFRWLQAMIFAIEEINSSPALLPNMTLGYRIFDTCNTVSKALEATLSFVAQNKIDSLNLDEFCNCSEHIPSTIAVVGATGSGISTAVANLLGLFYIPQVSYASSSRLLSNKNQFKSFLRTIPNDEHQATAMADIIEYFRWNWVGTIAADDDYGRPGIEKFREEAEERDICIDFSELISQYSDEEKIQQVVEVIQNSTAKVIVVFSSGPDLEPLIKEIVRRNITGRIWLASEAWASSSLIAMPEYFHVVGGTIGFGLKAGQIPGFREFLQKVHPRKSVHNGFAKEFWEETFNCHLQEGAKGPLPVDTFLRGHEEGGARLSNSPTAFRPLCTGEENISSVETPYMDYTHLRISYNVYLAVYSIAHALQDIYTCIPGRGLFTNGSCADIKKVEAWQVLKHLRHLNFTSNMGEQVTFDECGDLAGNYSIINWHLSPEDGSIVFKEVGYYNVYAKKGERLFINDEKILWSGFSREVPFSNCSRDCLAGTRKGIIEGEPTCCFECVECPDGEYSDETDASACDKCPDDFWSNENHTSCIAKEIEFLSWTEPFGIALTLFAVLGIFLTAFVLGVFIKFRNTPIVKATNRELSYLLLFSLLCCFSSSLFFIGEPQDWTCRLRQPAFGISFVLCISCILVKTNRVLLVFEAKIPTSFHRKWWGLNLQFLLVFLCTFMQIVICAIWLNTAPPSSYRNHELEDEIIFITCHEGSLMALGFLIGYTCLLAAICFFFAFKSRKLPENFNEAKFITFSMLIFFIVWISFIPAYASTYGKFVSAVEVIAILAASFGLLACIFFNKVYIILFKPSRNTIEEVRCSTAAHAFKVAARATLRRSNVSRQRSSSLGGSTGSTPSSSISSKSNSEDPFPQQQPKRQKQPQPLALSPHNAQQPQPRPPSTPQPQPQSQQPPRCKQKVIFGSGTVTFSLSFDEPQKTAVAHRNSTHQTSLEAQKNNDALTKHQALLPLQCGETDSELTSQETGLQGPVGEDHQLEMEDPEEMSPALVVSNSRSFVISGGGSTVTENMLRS
Sequence of Prostaglandin E2 receptor EP4 subtype (P32240 whole entry): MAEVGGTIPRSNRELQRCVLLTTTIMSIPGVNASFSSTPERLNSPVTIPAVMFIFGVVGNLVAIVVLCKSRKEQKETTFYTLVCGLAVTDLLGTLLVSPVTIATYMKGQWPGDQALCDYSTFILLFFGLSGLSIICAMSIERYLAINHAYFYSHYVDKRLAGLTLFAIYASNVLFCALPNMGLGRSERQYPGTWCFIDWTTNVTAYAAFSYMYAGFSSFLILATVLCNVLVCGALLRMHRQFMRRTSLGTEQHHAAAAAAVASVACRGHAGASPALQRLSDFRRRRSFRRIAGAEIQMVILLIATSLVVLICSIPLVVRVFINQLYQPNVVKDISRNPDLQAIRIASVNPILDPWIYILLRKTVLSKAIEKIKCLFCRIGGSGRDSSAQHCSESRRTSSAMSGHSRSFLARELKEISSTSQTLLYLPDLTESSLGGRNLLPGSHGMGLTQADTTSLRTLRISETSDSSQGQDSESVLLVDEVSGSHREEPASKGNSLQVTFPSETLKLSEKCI
Sequence of Prostaglandin E2 receptor EP3 subtype (P30557 whole entry): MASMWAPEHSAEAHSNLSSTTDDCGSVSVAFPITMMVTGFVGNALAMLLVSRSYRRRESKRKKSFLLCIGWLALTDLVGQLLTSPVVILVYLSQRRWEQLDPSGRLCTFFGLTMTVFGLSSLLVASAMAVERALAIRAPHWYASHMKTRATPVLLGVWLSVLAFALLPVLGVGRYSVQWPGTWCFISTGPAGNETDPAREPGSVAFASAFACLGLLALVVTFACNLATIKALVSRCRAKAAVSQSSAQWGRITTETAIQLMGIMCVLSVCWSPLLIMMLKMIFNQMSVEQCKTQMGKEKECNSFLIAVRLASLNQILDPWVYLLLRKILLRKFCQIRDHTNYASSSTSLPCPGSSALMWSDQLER
Sequence of Vitronectin (Homo sapiens) (P04004 whole entry): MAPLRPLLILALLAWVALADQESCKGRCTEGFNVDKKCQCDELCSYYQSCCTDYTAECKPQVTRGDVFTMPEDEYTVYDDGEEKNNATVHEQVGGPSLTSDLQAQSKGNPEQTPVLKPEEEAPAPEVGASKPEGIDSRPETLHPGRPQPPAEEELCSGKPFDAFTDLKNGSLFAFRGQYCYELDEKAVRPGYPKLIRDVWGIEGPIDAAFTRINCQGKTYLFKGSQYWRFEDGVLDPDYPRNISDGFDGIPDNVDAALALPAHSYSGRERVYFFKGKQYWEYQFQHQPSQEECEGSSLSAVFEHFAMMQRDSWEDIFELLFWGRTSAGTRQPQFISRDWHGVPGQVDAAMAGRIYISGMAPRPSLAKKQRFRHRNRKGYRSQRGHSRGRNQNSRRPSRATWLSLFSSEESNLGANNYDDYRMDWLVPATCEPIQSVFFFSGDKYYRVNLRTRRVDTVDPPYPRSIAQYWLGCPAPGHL
Sequence of Cathepsin K (O35186 whole entry): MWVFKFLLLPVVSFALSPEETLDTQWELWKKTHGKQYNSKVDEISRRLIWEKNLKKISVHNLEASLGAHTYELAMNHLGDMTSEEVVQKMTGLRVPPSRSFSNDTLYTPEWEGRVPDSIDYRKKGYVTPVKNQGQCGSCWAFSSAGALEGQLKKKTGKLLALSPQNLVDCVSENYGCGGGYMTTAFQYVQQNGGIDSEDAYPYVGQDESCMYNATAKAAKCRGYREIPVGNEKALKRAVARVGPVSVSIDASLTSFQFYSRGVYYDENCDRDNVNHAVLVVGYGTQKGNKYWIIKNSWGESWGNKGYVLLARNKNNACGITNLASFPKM

COc1cc(C(=O)NC[C@H](NS(=O)(=O)c2ccccc2)C(=O)O)ccc1N1CCC(NC2=NCCCN2)CC1
clearance [1]: 47 mL/min/kg
INH [2]: 0.44 nM
solubility [3]: 1300 µg/mL (≈ 2330 µM)
pIC50 (Integrin alpha-V/beta-3): 9.72
INH [4]: 110 nM
half-life [5]: 0.767 h

C/C(=C\Cc1c(O)cc2occ(-c3ccc(O)cc3)c(=O)c2c1O)CO [GLABRISOFLAVONE]
Activity (MC3T3-E1 [6]): 58%
Activity (MC3T3-E1 [7]): 58%

CC(C)(CC1Cc2ccccc2C1)NC[C@@H](O)COc1cc(CCC(=O)O)cc(F)c1F.Cl [RONACALERET HYDROCHLORIDE]
Activity (Homo sapiens [8]): 63%
Cmax PTH (Rattus norvegicus [9]): 66 pM
Cmax PTH (Rattus norvegicus [10]): 68 pM
Activity (Homo sapiens [11]): 79%
Cmax PTH (Rattus norvegicus [12]): 33 pM
Activity (Homo sapiens [13]): 35%

CC(C)(F)C[C@H](N[C@@H](c1ccc(-c2ccc(S(C)(=O)=O)cc2)cc1)C(F)(F)F)C(=O)NC1(C#N)CC1 [ODANACATIB]
Activity (Homo sapiens [14]): 5.5%
Selectivity ratio [15]: > 50000
Selectivity ratio [16]: 15000
Selectivity ratio [17]: 5170
Selectivity ratio [18]: 3810
bioavailability [19]: ≤ 100%
Activity (Homo sapiens [20]): 3.2%
Selectivity ratio [21]: 300
bioavailability [22]: ≤ 38%
Selectivity ratio [23]: 3980

COc1ccc([C@@H](CCC[C@H](O)CCc2ccc3c(n2)NCCC3)CC(=O)O)cn1
fraction unbound (Homo sapiens [24]): 0.07
clearance [25]: 2.5 mL/min/kg
bioavailability [19]: 60%

CCCCN1C(=O)C(=C(N)N)C(=O)N(CCCC)C1=O
pEC50 (Homo sapiens [26]): 5.82
pEC50 [27]: 5.49

COCc1cccc(C[C@H](O)/C=C/[C@H]2[C@H](O)CC(=O)[C@@H]2CCSCCCC(=O)OC)c1 [RIVENPROST]
pEC50 [28]: 8.80
pKi [29]: 7.25
fold change (FC) (Mus musculus): 3
Activity (Rattus norvegicus [30]): 378 mg/cm3

CC(C)C[C@H](NC(=O)c1ccc(C(C)(C)C)cc1)C(=O)N1CC[C@@H]2[C@H]1C(=O)CN2C(=O)c1ccccc1
Selectivity ratio [16]: > 347
Selectivity ratio [17]: > 990
Selectivity ratio [21]: > 446
inhibition at 100 µM (Osteoclast): 75%

COc1ccc([C@H](CC(=O)O)N2CCN(CCCc3ccc4c(n3)NCCC4)C2=O)cn1
Activity (Rhesus monkey): 39%
Activity (Homo sapiens [31]): 2.4%
CL/F [32]: 47 mL/min/kg
fraction unbound (Homo sapiens [24]): 0.12
Selectivity ratio [33]: 125
Activity (Rattus norvegicus [34]): 8.9%
CL/F [35]: 6.4 mL/min/kg
Activity (Homo sapiens [36]): 1.7%
Activity (Rattus norvegicus [37]): 12.8%
Activity (Homo sapiens [38]): 3.5%
half-life [39]: 3 h

Cc1ccc(CC(C)(C)NC[C@@H](O)CO[C@H](C)c2ccccc2[C@@H]2C[C@@H]3C[C@H]2[C@H]2[C@H](C(=O)O)[C@@H]32)cc1F
bioavailability [40]: 60%
pIC50 [41]: 7.60

CC(C)C[C@H](NC(=O)c1cc2ccccc2o1)C(=O)N[C@H]1CC[C@@H](C)N(S(=O)(=O)c2ccccn2)CC1=O [RELACATIB]
inhibition in vivo at 10 mg/kg (Cynomolgus monkey [42]): ≤ 57%
inhibition in vivo at 10 mg/kg (Cynomolgus monkey [43]): ≤ 57%
inhibition in vivo at 10 mg/kg (Cynomolgus monkey [44]): ≤ 57%
Activity (Cynomolgus monkey [45]): 42%
inhibition in vivo at 10 mg/kg (Cynomolgus monkey [46]): ≤ 57%
Activity (Cynomolgus monkey [47]): 49%

CC[C@@H](CNc1ccc(OCC(=O)O)cc1)NC(=O)C1(Nc2cccc(-c3ccccc3)c2)CCCCC1
pIC50 (Cathepsin K): 7.24
Selectivity ratio [16]: > 4170
Cmax [48]: 9200 ng/mL
Selectivity ratio [17]: > 4170
AUC [49]: 104 µg·h/mL
Selectivity ratio [21]: 2080

CC(C)(Cc1ccc2ccccc2c1)NC[C@@H](O)COc1cccc(Cl)c1C#N
pEC50 [50]: 7.39

O=S(=O)(NC1CCNCC1)c1cc(S(=O)(=O)c2ccccc2)ccc1C(F)(F)F
Activity [51]: 60%
